Source: paper PMC10648349, “Aromatic Diboronic Acids as Effective KPC/AmpC Inhibitors” (Molecules, 2023)
Values after ≈ are worked out from the molar mass of the structure shown.

Columns and labels:
E. faecium ATCC 6057 = experiment: direct antimicrobial activity (disc-diffusion, MIC, MBC); assay type: cell-based; conditions: Enterococcus faecium, ATCC6057; for zone of inhibition at 0.4 mg/disc: 0.4 mg per disc, 9 mm disc (linezolid 0.03 mg, 6 mm disc), - no zone, read-out: Diameter of inhibition zone
Summary of the method: (§1)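 Following CLSI and EUCAST guidance, DMSO-dissolved compounds were tested by broth MIC, by minimal bactericidal (bacteria) or fungicidal (yeast) concentration, and by disc diffusion at 0.4 mg per disc. Comparators were fluconazole (yeasts), linezolid (Gram-positives) and nitrofurantoin (Gram-negative rods).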

[1] = tested on: S. epidermidis ATCC 12228; experiment: as above; assay type: cell-based; conditions: Staphylococcus epidermidis, ATCC12228; for zone of inhibition at 0.4 mg/disc: 0.4 mg per disc, 9 mm disc (linezolid 0.03 mg, 6 mm disc), - no zone, read-out: Diameter of inhibition zone
Summary of the method: as §1

[2] = tested on: S. aureus ATCC 43300 MRSA; experiment: as above; assay type: cell-based; conditions: Staphylococcus aureus; for zone of inhibition at 0.4 mg/disc: 0.4 mg per disc, 9 mm disc (linezolid 0.03 mg, 6 mm disc), - no zone, read-out: Diameter of inhibition zone
Summary of the method: as §1

S. aureus ATCC 6538P = experiment: as above; assay type: cell-based; conditions: Staphylococcus aureus, ATCC6538P; for zone of inhibition at 0.4 mg/disc: 0.4 mg per disc, 9 mm disc (linezolid 0.03 mg, 6 mm disc), - no zone, read-out: Diameter of inhibition zone
Summary of the method: as §1

E. faecalis ATCC 29212 = experiment: as above; assay type: cell-based; conditions: Enterococcus faecalis, ATCC29212; for zone of inhibition at 0.4 mg/disc: 0.4 mg per disc, 9 mm disc (linezolid 0.03 mg, 6 mm disc), - no zone, read-out: Diameter of inhibition zone
Summary of the method: as §1

E. coli 77 CMY-2(+) = experiment: MIC of tested agent alone, microdilution; assay type: cell-based; conditions: Escherichia coli; read-out: MIC of agent alone
Summary of the method: (§2)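 MICs of the agents alone were determined by broth microdilution. In checkerboard plates, β-lactams (1–64 mg/L) were combined with the agents or PBA at 4–16 mg/L, and antibiotic MICs were read at each agent concentration. FICI was calculated at the growth/no-growth interface.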

[3] = tested on: K. pneumoniae ATCC BAA-1705 KPC-2(+); experiment: MIC of tested agent alone, microdilution; assay type: cell-based; conditions: Klebsiella pneumoniae, ATCCBAA1705; read-out: MIC of agent alone
Summary of the method: as §2

E. coli 76 KPC-2(+) = experiment: MIC of tested agent alone, microdilution; assay type: cell-based; conditions: Escherichia coli; read-out: MIC of agent alone
Summary of the method: as §2

[4] = tested on: K. pneumoniae 81 KPC-3(+); experiment: MIC of tested agent alone, microdilution; assay type: cell-based; conditions: Klebsiella pneumoniae; read-out: MIC of agent alone
Summary of the method: as §2

[5] = tested on: P. aeruginosa MUW 700 AmpC(+); experiment: MIC of tested agent alone, microdilution; assay type: cell-based; conditions: Pseudomonas aeruginosa; read-out: MIC of agent alone
Summary of the method: as §2

[6] = tested on: K. pneumoniae 83 KPC-3(+), CTX-M-3(+); experiment: MIC of tested agent alone, microdilution; assay type: cell-based; conditions: Klebsiella pneumoniae; read-out: MIC of agent alone
Summary of the method: as §2

[7] = tested on: C. parapsilosis ATCC 22019; experiment: antifungal activity (disc-diffusion, MIC, MFC); assay type: cell-based, Candida parapsilosis; conditions: Lodderomyces parapsilosis, ATCC22019; for zone of inhibition at 0.4 mg/disc: 0.4 mg per disc, 9 mm disc (fluconazole 0.025 mg, 6 mm disc), - no zone, read-out: Diameter of inhibition zone; for MIC: fluconazole by Etest
Summary of the method: as §1

[8] = tested on: P. aeruginosa MUW 700 cAmpC-positive; experiment: combination disc test CDT-AmpC; assay type: cell-based; conditions: Pseudomonas aeruginosa; agent 0.1 mg per disc; read-out: Diameter of inhibition zone, CAZ-30 disc with agent
[9] = tested on: C. guilliermondii IBA 155; experiment: antifungal activity (disc-diffusion, MIC, MFC); assay type: cell-based, Candida guilliermondii; conditions: Meyerozyma guilliermondii, IBA155; for zone of inhibition at 0.4 mg/disc: 0.4 mg per disc, 9 mm disc (fluconazole 0.025 mg, 6 mm disc), - no zone, read-out: Diameter of inhibition zone; for MIC: fluconazole by Etest
Summary of the method: as §1

[10] = tested on: P. aeruginosa MUW 700 cAmpC-positive; experiment: checkerboard microdilution, antibiotic plus tested agent; assay type: cell-based, Pseudomonas aeruginosa
Summary of the method: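 β-lactam 1–64 mg/L × agent/PBA 4–16 mg/L checkerboard; meropenem vs carbapenemase producers, ceftazidime vs AmpC producer; imipenem, ertapenem added for selected agents. Readout: combination MICs, FICI (average and lowest); off-scale MICs taken as next doubling.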

[11] = tested on: K. pneumoniae ATCC BAA 1705 KPC-2-positive; experiment: combination disc test CDT-KPC; assay type: cell-based; conditions: Klebsiella pneumoniae, BAA1705; agent 0.1 mg per disc; read-out: Diameter of inhibition zone, MEM-10 disc with agent
C. tropicalis IBA 171 = experiment: antifungal activity (disc-diffusion, MIC, MFC); assay type: cell-based; conditions: Candida tropicalis, IBA171; for MIC: fluconazole by Etest
Summary of the method: as §1

C. tropicalis ATCC 750 = experiment: antifungal activity (disc-diffusion, MIC, MFC); assay type: cell-based; conditions: Candida tropicalis, ATCC750; for MIC: fluconazole by Etest
Summary of the method: as §1

C. albicans ATCC 90028 = experiment: antifungal activity (disc-diffusion, MIC, MFC); assay type: cell-based; conditions: Candida albicans, ATCC90028; for MIC: fluconazole by Etest
Summary of the method: as §1

S. cerevisiae ATCC 9763 = experiment: antifungal activity (disc-diffusion, MIC, MFC); assay type: cell-based; conditions: Saccharomyces cerevisiae, ATCC9763; for zone of inhibition at 0.4 mg/disc: 0.4 mg per disc, 9 mm disc (fluconazole 0.025 mg, 6 mm disc), - no zone, read-out: Diameter of inhibition zone; for MIC: fluconazole by Etest
Summary of the method: as §1

B. subtilis ATCC 6633 = experiment: direct antimicrobial activity (disc-diffusion); assay type: cell-based; conditions: Bacillus subtilis, ATCC6633; 0.4 mg per disc, 9 mm disc (linezolid 0.03 mg, 6 mm disc); - no zone; read-out: Diameter of inhibition zone
Summary of the method: as §1

[12] = tested on: E. coli 77 CMY-2-positive; experiment: combination disc test CDT-AmpC; assay type: cell-based; conditions: Escherichia coli; agent 0.1 mg per disc; read-out: Diameter of inhibition zone, CAZ-30 disc with agent
[13] = 0.4 mg per disc, 9 mm disc (fluconazole 0.025 mg, 6 mm disc), - no zone, read-out: Diameter of inhibition zone

| SMILES | MIC (E. faecium ATCC 6057) [µg/mL] | MIC [1] [µg/mL] | zone of inhibition at 0.4 mg/disc [1] [mm] | MIC [2] [µg/mL] | zone of inhibition at 0.4 mg/disc [2] [mm] | MIC (S. aureus ATCC 6538P) [µg/mL] | zone of inhibition at 0.4 mg/disc (S. aureus ATCC 6538P) [mm] | MIC (E. faecalis ATCC 29212) [µg/mL] | MIC (E. coli 77 CMY-2(+)) [µg/mL] | MIC [3] [µg/mL] | MIC (E. coli 76 KPC-2(+)) [µg/mL] | MIC [4] [µg/mL] | MIC [5] [µg/mL] | MIC [6] [µg/mL] | MIC [7] [µg/mL] | zone of inhibition at 100 µg/disc [8] [mm] | MIC [9] [µg/mL] | Average FICI with ceftazidime [10] | Interpretation of the average FICI with ceftazidime [10] | Interpretation of the lowest FICI with ceftazidime [10] | also measured |
| --- | --- | --- | --- | --- | --- | --- | --- | --- | --- | --- | --- | --- | --- | --- | --- | --- | --- | --- | --- | --- | --- |
| OB(O)c1ccc(B(O)O)c(F)c1 [1b] | 200 (≈ 1090 µM) | 100 (≈ 544 µM) | 17 | 100 (≈ 544 µM) | 13 | 25 (≈ 136 µM) | 14 | 200 (≈ 1090 µM) | 400 | > 400 | 400 | > 400 | > 400 | > 400 | 100 (≈ 544 µM) | 20 | 400 (≈ 2180 µM) | 0.18 | S (FICI ≤ 0.5, synergy) | S (FICI ≤ 0.5, synergy) | zone of inhibition at 0.4 mg/disc [7]: 12 mm; zone of inhibition at 0.4 mg/disc [9]: 24 mm; The lowest FICI with ceftazidime [10]: 0.14; zone of inhibition at 100 µg/disc [11]: 11 mm; MIC (C. tropicalis IBA 171): 400 µg/mL (≈ 2180 µM); MIC (C. tropicalis ATCC 750): > 400 µg/mL; MIC (C. albicans ATCC 90028): > 400 µg/mL; zone of inhibition at 0.4 mg/disc (S. cerevisiae ATCC 9763): 14 mm; MIC (S. cerevisiae ATCC 9763): 25 µg/mL (≈ 136 µM); zone of inhibition at 0.4 mg/disc (B. subtilis ATCC 6633): 23 mm; zone of inhibition at 100 µg/disc [12]: 20 mm |
| OB(O)c1cc(F)c(F)c(B(O)O)c1 [2d] | 200 (≈ 991 µM) | 50 (≈ 248 µM) | 12 | 100 (≈ 496 µM) | 19 | 50 (≈ 248 µM) | 22 | 200 (≈ 991 µM) | 200 | 400 | 200 | 400 | > 400 | 400 | > 400 | 18 | 400 (≈ 1980 µM) | 0.35 | S (FICI ≤ 0.5, synergy) | S (FICI ≤ 0.5, synergy) | zone of inhibition at 0.4 mg/disc (E. faecium ATCC 6057): 14 mm; zone of inhibition at 0.4 mg/disc (E. faecalis ATCC 29212): 14 mm; The lowest FICI with ceftazidime [10]: 0.26; zone of inhibition at 100 µg/disc [11]: 6 mm; MIC (C. tropicalis IBA 171): > 400 µg/mL; MIC (C. tropicalis ATCC 750): > 400 µg/mL; MIC (C. albicans ATCC 90028): 400 µg/mL (≈ 1980 µM); MIC (S. cerevisiae ATCC 9763): > 400 µg/mL; zone of inhibition at 0.4 mg/disc (B. subtilis ATCC 6633): 15 mm; zone of inhibition at 100 µg/disc [12]: 21 mm |
| OB(O)c1cc(F)c(B(O)O)c(F)c1F [1f] | 200 (≈ 910 µM) | 50 (≈ 228 µM) | 17 | 200 (≈ 910 µM) | 16 | 50 (≈ 228 µM) | 17 | 400 (≈ 1820 µM) | 100 | 100 | 100 | 100 | > 400 | 100 | 100 (≈ 455 µM) | 17 | 50 (≈ 228 µM) | 0.43 | S (FICI ≤ 0.5, synergy) | S (FICI ≤ 0.5, synergy) | zone of inhibition at 0.4 mg/disc [7]: 20 mm; zone of inhibition at 0.4 mg/disc [9]: 29 mm; The lowest FICI with ceftazidime [10]: 0.27; zone of inhibition at 100 µg/disc [11]: 6 mm; zone of inhibition at 0.4 mg/disc (C. tropicalis IBA 171; [13]): 20 mm; MIC (C. tropicalis IBA 171): 50 µg/mL (≈ 228 µM); zone of inhibition at 0.4 mg/disc (C. tropicalis ATCC 750; [13]): 18 mm; MIC (C. tropicalis ATCC 750): 100 µg/mL (≈ 455 µM); zone of inhibition at 0.4 mg/disc (C. albicans ATCC 90028; [13]): 24 mm; MIC (C. albicans ATCC 90028): 50 µg/mL (≈ 228 µM); zone of inhibition at 0.4 mg/disc (S. cerevisiae ATCC 9763): 20 mm; MIC (S. cerevisiae ATCC 9763): 50 µg/mL (≈ 228 µM); zone of inhibition at 0.4 mg/disc (B. subtilis ATCC 6633): 13 mm; zone of inhibition at 100 µg/disc [12]: 21 mm |
| OB(O)c1cc(F)c(B(O)O)cc1F [1e] | 100 (≈ 496 µM) | 25 (≈ 124 µM) | 21 | 25 (≈ 124 µM) | 26 | 12.5 (≈ 62 µM) | 20 | 200 (≈ 991 µM) | 100 | 200 | 100 | 200 | 200 | 200 | > 400 | 18 | > 400 | 0.38 | S (FICI ≤ 0.5, synergy) | S (FICI ≤ 0.5, synergy) | zone of inhibition at 0.4 mg/disc (E. faecium ATCC 6057): 14 mm; zone of inhibition at 0.4 mg/disc (E. faecalis ATCC 29212): 15 mm; zone of inhibition at 0.4 mg/disc [7]: 15 mm; zone of inhibition at 0.4 mg/disc [9]: 16 mm; The lowest FICI with ceftazidime [10]: 0.29; zone of inhibition at 100 µg/disc [11]: 11 mm; MIC (C. tropicalis IBA 171): > 400 µg/mL; MIC (C. tropicalis ATCC 750): > 400 µg/mL; MIC (C. albicans ATCC 90028): > 400 µg/mL; zone of inhibition at 0.4 mg/disc (S. cerevisiae ATCC 9763): 13 mm; MIC (S. cerevisiae ATCC 9763): 400 µg/mL (≈ 1980 µM); zone of inhibition at 0.4 mg/disc (B. subtilis ATCC 6633): 28 mm; zone of inhibition at 100 µg/disc [12]: 20 mm |
